# In patent publication US7439052B2, “Method of making modified immunodeficiency virus particles” (Lipid Sciences, priority 2000, dated 2008):
# Tests used:
# SIVmac239 [1] = assay: Absolute CD4 counts in SIV-infected macaques; format: in vivo; conditions: from pre-PMPA levels of <500/μl
# Description: (§1) A cohort of highly viremic macaques chronically infected for over two years with SIVmac239 was used as a chronic and pathogenic model of immunodeficiency virus infection. The animals were identified as RDg-7, RJo-6, RMi-7 and RSp-6. To test the effect on these animals of administration of a delipidated immunodeficiency virus composition comprising modified, partially delipidated immunodeficiency viral particles, also referred to as therapeutic vaccine compositions or therapeutic vaccines, autologous immunodeficiency virus was delipidated and administered to the experimental animals following a 30 day antiretroviral therapy (ART) with an antiviral drug PMPA. […] The animals were then subjected to lymph node targeted immunization at monthly intervals with 1, 1 and 10 μg of autologous delipidated SIV virus composition, obtained substantially as described elsewhere herein. Four weeks after the last boost, ART was discontinued and the animals were monitored for virological and immunological parameters.
# SIVmac239 [2] = assay: Plasma viral loads in macaques chronically infected with SIVmac239; format: in vivo
# Description: as §1
# The virological and immunological parameters were determined substantially as follows. Viral loads, schematically shown in FIGS. 13-18, were analyzed by SIV enzyme immunoassay (EIA) substantially as described elsewhere herein. […] Plates were read at a 450 nm wavelength using an ELISA reader. […]
smiles,measurement,setting,value
C[C@H](Cn1cnc2c(N)ncnc21)OCP(=O)(O)O [PMPA],absolute CD4 counts,SIVmac239 [1],increases in absolute CD4 counts
same,viral loads after 30 day antiretroviral therapy,SIVmac239 [2]; macaques chronically infected with SIVmac239,less than 80 copies/ml of viral RNA
same,plasma viral loads under treatment (below the limits of detection),SIVmac239 [2]; reduced from 10^4-10^6,< 10 viral RNA copies/ml
